Like-named read-outs stand apart in the source and are kept apart here.
Tests used:
[1] = test system: mouse unfertilized ovum (cumulus-oocyte complexes)
Method: A sperm suspension is pre-incubated in 90 μl of a TYH culture medium at 37° C. for 30 minutes, and under a stereomicroscope, sperms showing motility are collected, avoiding nonmotile sperms, and used for fertilization. The pre-incubated sperm suspension (10 μl) is added to 90 μl of an HTF culture medium (±glutathione) into which cumulus-oocyte complexes (COCs) have been previously introduced (insemination), and these are co-incubated in an incubator for 5 to 6 hours (37° C., 5% CO2), thereby performing fertilization. Thereafter, the ovum is washed with drops of new HTF, and the ovum is observed. Those judged to parthenogenetic (only one pronucleus is recognized in ooplasm) are excluded, and on the following day (24 hours after insemination), only 2-cell stage embryos are selected, and fertilization rate is determined according to the following formula. In vitro fertilization rate (%)=(number of 2-cell stage embryo)/(number of 2-cell stage embryo+number of unfertilized ovum)×100
According to the ordinary method as described above, fresh sperms and frozen sperms of C57BL/6J mice and refrigerated sperms (refrigerated for 2 days) of ICR mice were used to prepare sperm suspensions, which were used for conducting in vitro fertilization. Further, according to the ordinary method as described above, mouse fresh unfertilized ovums were prepared and cumulus-oocyte complexes were obtained.
The HTF culture medium was prepared according to the composition table described above. To the prepared HTF culture medium was added reduced glutathione so that its concentration was 1 mM (0.307 mg/ml), to prepare a glutathione-containing culture medium. Specifically, the HTF culture medium was prepared according to the composition table, and the culture medium was enclosed in an amount of 5 ml for each operation into an ample (component A). Further, 30.7 mg of reduced glutathione (available from SIGMA) and 593.8 mg of NaCl were mixed, then, the mixture was dispensed in one-time use amount (glutathione 1.535 mg/mixture 31.225 mg) (component B). Until use, these reagents were refrigerated, and directly before use, the component A and the component B were mixed and used for insemination. As the control, only the component A (THF culture medium containing no glutathione added) was used.
Specifically, into 90 μl of a HTF culture medium (glutathione concentration: 1 mM) containing cumulus-oocyte complexes (COCs) in a dish were added sperm suspensions (collected motile sperms) of fresh sperms, frozen sperms and refrigerated sperms each in an amount of 10 μl, and fertilization was conducted and fertilization rate was determined according to the above-described theory. An HTF culture medium containing no glutathione was used as the control.
Fertilization rate was investigated using various reduced glutathione concentrations, in the same manner as in Example 1. As the sperm, frozen sperms of C57BL/6J mice were used, and processed according to FIG. 1.
Regarding the sperms, fresh sperms and frozen sperms pre-incubated with MBCD were used in performing fertilization. The concentration of glutathione in an HTF culture medium was 0.25 mM in the case of fresh sperms and 1 mM in the case of frozen sperms. The sperms were pre-incubated with a MBCD-containing TYH culture medium (no glutathione) before fertilization, in the same manner as in Example 3. The pre-incubation time was 1 hour in the case of fresh sperms and 30 minutes in the case of frozen sperms.
The sperms were pre-incubated with a MBCD-containing TYH culture medium (no glutathione) before fertilization, in the same manner as in Example 3. The pre-incubation time was 1 hour.

[2] = test system: mouse frozen unfertilized ovums
Method: According to an ordinary method, mouse frozen unfertilized ovums were prepared using 8-week old female mice.

[3] = freeze-thawed ovums, zona pellucida eliminated with 100 mM glutathione

Structure (SMILES): N[C@@H](CCC(=O)N[C@@H](CS)C(=O)NCC(=O)O)C(=O)O [glutathione, reduced glutathione]
- fertilization rate (%) ([1]; 129T2/SvEmsJ, cryopreserved sperms pre-incubated with MBCD, glutathione 1 mM): 82.1%
- fertilization rate (%) ([1]; 129T2/SvEmsJ, fresh sperms pre-incubated with MBCD, glutathione 0.25 mM): 84.9%
- fertilization rate (%) ([1]; B6C3F1, cryopreserved sperms pre-incubated with MBCD, glutathione 1 mM): 87.6%
- fertilization rate (%) ([1]; B6C3F1, fresh sperms pre-incubated with MBCD, glutathione 0.25 mM): 97.7%
- fertilization rate (%) ([1]; BALB/c, cryopreserved sperms pre-incubated with MBCD, glutathione 1 mM): 68.3%
- fertilization rate (%) ([1]; BALB/c, fresh sperms pre-incubated with MBCD, glutathione 0.25 mM): 74.7%
- fertilization rate (%) ([1]; BDF1, cryopreserved sperms pre-incubated with MBCD, glutathione 1 mM): 98.3%
- fertilization rate (%) ([1]; BDF1, fresh sperms pre-incubated with MBCD, glutathione 0.25 mM): 94.2%
- fertilization rate (%) ([1]; C3H/He, cryopreserved sperms pre-incubated with MBCD, glutathione 1 mM): 98.0%
- fertilization rate (%) ([1]; C3H/He, fresh sperms pre-incubated with MBCD, glutathione 0.25 mM): 97.5%
- fertilization rate (%) ([1]; C57BL/6J, cryopreserved sperms pre-incubated with MBCD, glutathione 1 mM): 97.9%
- fertilization rate (%) ([1]; C57BL/6J, fresh sperms pre-incubated with MBCD, glutathione 0.25 mM): 95.6%
- fertilization rate (%) ([1]; C57BL/6N, cryopreserved sperms pre-incubated with MBCD, glutathione 1 mM): 90.9%
- fertilization rate (%) ([1]; C57BL/6N, fresh sperms pre-incubated with MBCD, glutathione 0.25 mM): 90.9%
- fertilization rate (%) ([1]; DBA/2N, cryopreserved sperms pre-incubated with MBCD, glutathione 1 mM): 95.8%
- fertilization rate (%) ([1]; DBA/2N, fresh sperms pre-incubated with MBCD, glutathione 0.25 mM): 95.2%
- fertilization rate (%) ([1]; ICR, cryopreserved sperms pre-incubated with MBCD, glutathione 1 mM): 94.9%
- fertilization rate (%) ([1]; ICR, fresh sperms pre-incubated with MBCD, glutathione 0.25 mM): 93.8%
- reduced glutathione concentration giving remarkable improvement in fertilization rate ([1]; fresh sperms): ≥ 0.075 mg/mL
- fertilization rate (%) ([1]; fresh sperms of C57BL/6J mice, glutathione 1 mM in HTF): 82.5%
- effect on fertilization rate ([1]; fresh sperms, various lineages, glutathione 0.25 mM): sufficient improvement in fertilization rate
- glutathione concentration at which improvement in fertilization rate was confirmed ([1]; frozen C57BL/6J sperms): ≥ 0.5 mM
- fertilization rate (%) ([1]; frozen sperms of C57BL/6J mice, glutathione 1 mM in HTF): 92.1%
- effect on fertilization rate ([1]; frozen sperms, all mouse lineages, glutathione 1 mM): remarkable improvement in fertilization rate for frozen sperms
- number of 2-cell stage embryo(%) ([1]; glutathione 0.25 mM, frozen C57BL/6J sperms): 67%
- number of 2-cell stage embryo ([1]; glutathione 0.25 mM, frozen C57BL/6J sperms, 279 oocytes): 187
- number of 2-cell stage embryo(%) ([1]; glutathione 0.50 mM, frozen C57BL/6J sperms): 79%
- number of 2-cell stage embryo ([1]; glutathione 0.50 mM, frozen C57BL/6J sperms, 316 oocytes): 251
- number of 2-cell stage embryo(%) ([1]; glutathione 0.75 mM, frozen C57BL/6J sperms): 82%
- number of 2-cell stage embryo ([1]; glutathione 0.75 mM, frozen C57BL/6J sperms, 307 oocytes): 252
- effect on fertilization rate ([1]; glutathione 1 mM, fresh, frozen and refrigerated sperms): significant improvement in fertilization rate
- number of 2-cell stage embryo(%) ([1]; glutathione 1.00 mM, frozen C57BL/6J sperms): 92%
- number of 2-cell stage embryo ([1]; glutathione 1.00 mM, frozen C57BL/6J sperms, 276 oocytes): 254
- number of 2-cell stage embryo(%) ([1]; glutathione 1.25 mM, frozen C57BL/6J sperms): 93%
- number of 2-cell stage embryo ([1]; glutathione 1.25 mM, frozen C57BL/6J sperms, 292 oocytes): 272
- number of 2-cell stage embryo(%) ([1]; glutathione 1.50 mM, frozen C57BL/6J sperms): 89%
- number of 2-cell stage embryo ([1]; glutathione 1.50 mM, frozen C57BL/6J sperms, 294 oocytes): 262
- number of 2-cell stage embryo(%) ([1]; glutathione 2.00 mM, frozen C57BL/6J sperms): 92%
- number of 2-cell stage embryo ([1]; glutathione 2.00 mM, frozen C57BL/6J sperms, 309 oocytes): 285
- number of 2-cell stage embryo(%) ([1]; glutathione 5.00 mM, frozen C57BL/6J sperms): 86%
- number of 2-cell stage embryo ([1]; glutathione 5.00 mM, frozen C57BL/6J sperms, 292 oocytes): 251
- number of 2-cell stage embryo(%) ([1]; glutathione 10.00 mM, frozen C57BL/6J sperms): 81%
- number of 2-cell stage embryo ([1]; glutathione 10.00 mM, frozen C57BL/6J sperms, 341 oocytes): 276
- fertilization rate (%) ([1]; refrigerated sperms (2 days) of ICR mice, glutathione 1 mM in HTF): 63.9%
- fertilization rate ([1]; refrigerated sperms of C57BL/6J mice pre-incubated with MBCD 1 hour, glutathione 0.5 mM): 85.4%
- fertilization rate [2, 3]: 25%
- fertilization rate (fertilized/total) [2, 3]: 125/492
- condition of zona pellucida of freeze-thawed unfertilized ovum ([2]; glutathione 100 mM, 20° C., 90 seconds): the zona pellucida of a freeze-thawed unfertilized ovum was eliminated
